The values that follow come from PubChem BioAssay (NCI).

SMILES strings stand for the structures.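 Tested at 5 concentrations; 48 h exposure; 96-well plates; endpoints linearly interpolated, else capped at highest concentration. TGI denotes the concentration required for complete inhibition of growth.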

Common to all, as to experiment: NCI tumour cell line growth inhibition, 48 h
Test [1] concerns CAKI-1 renal.
For test [2], the system named is COLO 205 colon.
Test [3] relates to DU-145 prostate.
Test [4] deals with HOP-92 NSCLC.
Test [5] has as its system HS 578T breast.
Test [6] relates to MOLT-4 leukemia.
For test [7], the system named is OVCAR-3 ovarian.
Test [8] has as its system OVCAR-8 ovarian.
In test [9] the test system is SK-OV-3 ovarian.
Test [10] has as its system UO-31 renal.
Test [11] deals with A498 renal.

With `CCOC(=O)c1nc2c3c(ncn2n1)Oc1c(c(-c2ccccc2)nn1-c1ccccc1)C3c1ccc(OC)c(OC)c1` (configuration not stated), the TGI in test [1] is more than 100 µM; in test [2], more than 100 µM; in [3], more than 100 µM; in [4], more than 100 µM; in test [5], 38 µM; in test [6], more than 100 µM. In addition, the TGI is more than 100 µM in test [7], 82.5 µM in test [8], more than 100 µM in test [9] and more than 100 µM in test [10].
Turning to `Cc1ncc([N+](=O)[O-])n1CCN(C)CCCCn1ccnc1[N+](=O)[O-]`, the TGI in test [11], in test [1], in test [2], in test [3], in test [5] and in [6] was more than 100 µM each time. Further, the TGI in test [7], in test [8], in [9] and in [10] was more than 100 µM in each case.
`CC1C(c2ccc(N(C)C)cc2)c2cc3c(cc2OC1N1CCCC1)OCO3` (configuration not stated): the TGI is 72.3 µM in test [11]; more than 100 µM in test [1]; more than 100 µM in test [2]; more than 100 µM in test [3]; more than 100 µM in test [4]; 78 µM in test [5]. Also, the TGI in [6], in test [7], in test [8] and in test [10] was more than 100 µM throughout.
On to `O=c1c2cc([N+](=O)[O-])ccc2n2n1Cc1ccccc1CC2`, for which the TGI in test [11], in test [1], in [2], in [3], in test [5] and in [6] was more than 100 µM in each case. Moreover, the TGI in test [7], in [8], in [9] and in [10] was more than 100 µM in each case.
Take `Fc1cccc(F)c1C1SCC2=Nc3ccccc3CN21` (configuration not stated): the TGI in test [11], in test [1], in [2], in test [3], in [4] and in test [5] was more than 100 µM in each case. The TGI in test [6] was more than 100 µM; in test [7], 47.5 µM; in test [9] it was more than 100 µM; in test [10], more than 100 µM.
On to `CC(C)(C)C1CCC2c3c([nH]c4ccccc34)C3C(=O)N(c4cc(Br)cc(Br)c4)C(=O)C3C2C1` (configuration not stated), for which the TGI in [11] was 68.4 µM; in [1] it was 66.6 µM; in test [2], more than 100 µM; in test [3] it was more than 100 µM; in test [4], 8.82 µM; in test [5] it was 30.8 µM. Also, the TGI in test [6] was 38.2 µM; in test [8], 50.2 µM; in [9], more than 100 µM; in [10], 46.2 µM.
Regarding `CCOC(=O)NNC(=O)NCCNC(=O)NNC(=O)OCC`, the TGI in [11], in test [1], in test [2], in test [3], in test [5] and in test [6] was more than 100 µM throughout. Also, the TGI in test [7], in [8], in [9] and in [10] was more than 100 µM each time.
In the case of `c1cc(-c2cscc2-c2ccsc2)cs1`, the TGI is more than 100 µM in [11]; more than 100 µM in test [1]; more than 100 µM in [2]; more than 100 µM in [3]; more than 100 µM in [4]; 64.2 µM in [5]. The TGI is more than 100 µM in test [6], 89.8 µM in test [7], more than 100 µM in test [9] and more than 100 µM in test [10].
Regarding `CSc1n[nH]c(N)c1C(=O)Nc1ccc(Cl)cc1`, the TGI in test [11], in test [1], in test [2], in [3], in test [5] and in [6] was more than 100 µM in each case. Moreover, the TGI in [7], in test [8], in [9] and in test [10] was more than 100 µM in each case.
Regarding `C[N+]1(C)CC=C(N2CCOCC2)CC1`, the TGI in [11], in [1], in test [2], in [3], in [5] and in test [6] was more than 10 µM in each case. The TGI in test [7], in [8], in test [9] and in test [10] was more than 10 µM throughout.
With `NCCC1(N)CCNCC1`, the TGI in [11], in test [1], in test [2], in [3], in [4] and in [5] was more than 100 µM throughout. Also, the TGI in test [6], in test [8], in [9] and in test [10] was more than 100 µM throughout.
`COc1c2nc(CCl)n(C)c(=O)c2c(OC)c2c(=O)n(C)c(CCl)nc12`: the TGI is 5.94 µM in [11]; 2.94 µM in test [1]; 2.71 µM in test [2]; 14 µM in [3]; more than 100 µM in [4]; 95 µM in test [5]. The TGI in [6] is 1.54 µM; in test [7], 5.68 µM; in test [8], 13.2 µM; in test [10], 2.49 µM.
For the compound `COc1c(C2(c3ccc(F)cc3)SCCCS2)c(=O)c1=O`, the TGI in [1], in test [2], in test [3], in test [4], in [5] and in [6] was more than 100 µM in each case. Also, the TGI in test [7], in test [8], in [9] and in test [10] was more than 100 µM throughout.
For `CC(=O)N[C@@H](Cc1ccc(O)cn1)C(=O)NCc1cccc(F)c1`, the TGI in [11], in test [1], in test [2], in test [3], in test [4] and in [5] was more than 100 µM throughout. Further, the TGI in test [7], in test [9] and in test [10] was more than 100 µM throughout.
On to `CN(NC(=O)c1ccco1)C1=NCCCCN1`, for which the TGI in test [2], in test [3], in test [4], in [5], in test [6] and in test [7] was more than 100 µM in each case. The TGI in test [8], in test [9] and in test [10] was more than 100 µM in each case.
For the compound `N#Cc1[nH]c(=O)n(-c2ccc([N+](=O)[O-])cc2)c1N`, the TGI in test [11], in test [2], in test [3], in test [4], in [5] and in test [6] was more than 10 µM in each case. Besides, the TGI in test [7], in test [8], in [9] and in [10] was more than 10 µM in each case.
Turning to `N/C(CC/C(N)=N\O)=N\O`, the TGI in [11], in [1], in test [3], in test [4], in test [5] and in [6] was more than 100 µM throughout. The TGI in test [7] and in [10] was more than 100 µM throughout.
Take `O=c1cnn(C2OC(CO)C(O)C(F)C2O)c(=O)[nH]1` (configuration not stated): the TGI in [11], in test [1], in test [2], in test [3], in test [4] and in test [5] was more than 100 µM in each case. In addition, the TGI in test [7], in [8], in test [9] and in test [10] was more than 100 µM in each case.
As for `C/C(=N\Nc1nc2cc(C)ccc2s1)c1ccccn1`, the TGI in test [11] came out at 10.6 µM; in test [1] it was 9.18 µM; in test [3] it was 5.65 µM; in [4], 10.3 µM; in test [5] it was 39 µM; in [8] it was 12.1 µM. Besides, the TGI was found to be 43.1 µM in test [9] and 11.1 µM in test [10].
In the case of `C=C(NC(=O)C(=C)NC(=O)c1csc(C2=NC3c4csc(n4)C4NC(=O)c5csc(n5)C(C(C)(O)C(C)O)NC(=O)C5CSC(=N5)/C(=C/C)NC(=O)C(C(C)O)NC(=O)c5csc(n5)C3(CC2)NC(=O)C(C)NC(=O)C(=C)NC(=O)C(=C)NC(=O)C(C(C)C)NC2C=Cc3c(C(C)O)cc(nc3C2O)C(=O)OC4C)n1)C(N)=O` (configuration not stated), the TGI in [11] is 16.5 µM; in [1], more than 87.2 µM; in test [2], more than 100 µM; in test [3] it was more than 72.4 µM; in test [4], 40.1 µM; in test [5] it was more than 100 µM. The TGI in test [7] is more than 100 µM; in test [8] it was 8.75 µM; in test [9] it was more than 63.4 µM; in test [10], more than 100 µM.
Turning to `COc1ccc(C2CC(c3cc4c(C)c(C(=O)c5ccccc5)oc4cc3O)=Nc3ccccc3S2)cc1OC` (configuration not stated), the TGI in test [11] was more than 87 µM; in [1], more than 100 µM; in test [2], more than 100 µM; in [3], more than 100 µM; in test [4] it was more than 73.7 µM; in test [5] it was more than 100 µM. Further, the TGI in test [6], in test [7], in [8] and in [10] was more than 100 µM throughout.
Regarding `CCCCCCCCCCCCNC(=O)NCC(OCC)OCC`, the TGI in [11], in [1], in [2], in test [3], in [4] and in [5] was more than 10 µM in each case. Besides, the TGI in test [6], in test [8] and in test [9] was more than 10 µM each time.
With `CCOC(=O)C(NCc1ccccc1)(NC(=O)c1ccccc1)C(F)(F)F` (configuration not stated), the TGI in [1], in [2], in test [3], in test [4], in [5] and in [6] was more than 100 µM each time. Further, the TGI in test [7], in test [8], in [9] and in test [10] was more than 100 µM each time.
As to `O=C(C=P(c1ccccc1)(c1ccccc1)c1ccccc1)C12CC3CC(CC(C3)C1)C2`, the TGI in test [11] was 39.9 µM; in [1] it was 33.6 µM; in [2] it was 28.7 µM; in [3] it was 39.3 µM; in test [4], 43.2 µM; in test [5], 37.6 µM. Besides, the TGI amounted to 28.5 µM in test [7], 34.5 µM in test [8] and 27.7 µM in [10].
For the compound `COc1ccc(-c2nc3ncccn3c2-c2ccc(S(C)=O)cc2)cc1` (configuration not stated), the TGI was 65.4 µM in test [1]; more than 100 µM in test [2]; more than 100 µM in [3]; more than 100 µM in [4]; more than 100 µM in test [5]; more than 100 µM in test [6]. In addition, the TGI in [7], in test [8], in test [9] and in test [10] was more than 100 µM each time.
With `Nc1c(Br)cc(-c2cc(Br)c(N)c(Br)c2)cc1Br`, the TGI in [1], in test [2], in test [3], in test [4], in test [5] and in test [6] was more than 100 µM throughout. For the same compound, the TGI in test [7], in test [8], in test [9] and in test [10] was more than 100 µM throughout.
As to `Cc1c2c(n3c(nc4ccccc43)c1C#N)N(c1ccc(Cl)cc1)CC2`, the TGI in [11], in test [1], in [2], in test [3], in test [4] and in test [5] was more than 100 µM in each case. In addition, the TGI in test [7], in test [8], in test [9] and in [10] was more than 100 µM in each case.
